Measured values published in paper PMC9419673 (Nanoscale Advances, 2021).

Columns and labels:
[1] = Analytical RP-HPLC retention as a measure of hydrophobicity; assay type: physicochemical; conditions: longer retention time compared to native EETI-II, Fig. 1
[2] = Solubility in aqueous buffer; assay type: physicochemical; conditions: pH 7.4, aqueous buffer

## CCCCCCCCCCCCCCCC(=O)NCCCC[C@H](N)C(=O)NCC(=O)N[C@@H](CO)C(=O)NCC(=O)N[C@@H](CO)C(=O)NCC(=O)N[C@H]1CSSC[C@@H]2NC(=O)CNC(=O)[C@H](C)NC(=O)[C@H](CC(C)C)NC(=O)[C@@H]3CSSC[C@@H](C(=O)NCC(=O)O)NC(=O)[C@H](Cc4ccccc4)NC(=O)CNC(=O)[C@H](CC(N)=O)NC(=O)[C@@H]4CCCN4C(=O)CNC(=O)[C@H](CSSC[C@H](NC(=O)[C@H](CCCNC(=N)N)NC(=O)[C@H](CCSC)NC(=O)[C@H](CC(C)C)NC(=O)[C@H]([C@@H](C)CC)NC(=O)[C@H](CCCNC(=N)N)NC(=O)[C@@H]4CCCN4C1=O)C(=O)N[C@@H](CCCCN)C(=O)N[C@@H](CCC(N)=O)C(=O)N[C@@H](CC(=O)O)C(=O)N[C@@H](CO)C(=O)N[C@@H](CC(=O)O)C(=O)N3)NC(=O)[C@H](C(C)C)NC2=O [CKP-C16, EETI-II-C16]
[1]
  hydrophobicity by analytical RP-HPLC retention time (in words): more hydrophobic than EETI-II (CKP)
[2]
  solubility: > 500 µM
